pKi: −log10 of the molar value.
Columns and labels:
Carbonic anhydrase 1 = Carbonic anhydrase 1 (Homo sapiens, UniProt P00915); assay: Inhibition of human carbonic anhydrase 1 by stopped flow CO2 assay
Carbonic anhydrase 9 = Carbonic anhydrase 9 (Homo sapiens, UniProt Q16790); assay: Inhibition of human carbonic anhydrase 9 by stopped flow CO2 assay
Carbonic anhydrase 2 = Carbonic anhydrase 2 (Homo sapiens, UniProt P00918); assay: Inhibition of human carbonic anhydrase 2 by stopped flow CO2 assay
Carbonic anhydrase 12 = Carbonic anhydrase 12 (Homo sapiens, UniProt O43570)
Carbonic anhydrase 12, sequence (O43570 whole entry): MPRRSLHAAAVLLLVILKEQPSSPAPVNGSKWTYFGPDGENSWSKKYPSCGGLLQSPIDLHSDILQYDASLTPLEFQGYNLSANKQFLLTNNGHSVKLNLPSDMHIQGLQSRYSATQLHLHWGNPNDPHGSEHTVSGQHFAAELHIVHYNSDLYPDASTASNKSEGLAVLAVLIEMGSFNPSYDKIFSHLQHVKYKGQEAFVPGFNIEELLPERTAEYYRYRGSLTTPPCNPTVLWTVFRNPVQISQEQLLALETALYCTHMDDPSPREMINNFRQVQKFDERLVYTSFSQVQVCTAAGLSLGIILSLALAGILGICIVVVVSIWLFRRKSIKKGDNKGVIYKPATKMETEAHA
Description: Inhibition of human carbonic anhydrase 12 by stopped flow CO2 assay

Carbonic anhydrase 1, sequence (P00915 whole entry): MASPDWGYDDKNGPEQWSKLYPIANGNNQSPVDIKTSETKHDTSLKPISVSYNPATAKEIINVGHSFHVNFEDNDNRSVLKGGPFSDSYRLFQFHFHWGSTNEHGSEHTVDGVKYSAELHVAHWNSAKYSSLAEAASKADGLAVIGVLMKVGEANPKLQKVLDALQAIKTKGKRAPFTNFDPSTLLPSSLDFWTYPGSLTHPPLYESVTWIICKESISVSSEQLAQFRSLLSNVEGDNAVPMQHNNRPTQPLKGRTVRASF

Row | pKi (Carbonic anhydrase 1) | pKi (Carbonic anhydrase 9) | pKi (Carbonic anhydrase 2) | pKi (Carbonic anhydrase 12) | Structure (SMILES)
1 | < 4.00 | 5.23 |  |  | CCn1cc(S(N)(=O)=O)c2cc(NC(=O)c3ccnc(Cl)c3)ccc21
2 | < 4.00 | 5.09 |  |  | CCn1cc(S(N)(=O)=O)c2cc(NC(=O)c3ccnc(Br)c3)ccc21
3 | < 4.00 | 5.04 | < 4.00 |  | Cn1cc(S(N)(=O)=O)c2cc(NC(=O)c3ccnc(O)c3)ccc21
4 | < 4.00 | 5.09 | < 4.00 |  | Cn1cc(S(N)(=O)=O)c2cc(NC(=O)c3ccnc(Br)c3)ccc21
5 | < 4.00 | 4.46 | < 4.00 | < 4.00 | Cn1cc(S(N)(=O)=O)c2cc(NC(=O)c3ccnc(N)c3)ccc21
6 | < 4.00 | 5.83 |  |  | CCn1cc(S(N)(=O)=O)c2cc(NC(=O)c3cc(-c4ccc(Cl)cc4Cl)nc4ccccc34)ccc21
7 | < 4.00 | 5.25 |  |  | CCn1cc(S(N)(=O)=O)c2cc(NC(=O)c3cc(-c4ccc(Cl)cc4)nc4ccccc34)ccc21
8 | < 4.00 | 5.27 | < 4.00 |  | CCn1cc(S(N)(=O)=O)c2cc(NC(=O)c3ccnc(O)c3)ccc21
9 | < 4.00 | 4.67 | < 4.00 | < 4.00 | CCn1cc(S(N)(=O)=O)c2cc(NC(=O)c3ccncc3)ccc21
10 | < 4.00 | 5.06 |  |  | CCn1cc(S(N)(=O)=O)c2cc(NC(=O)c3cc(Cl)nc(Br)c3)ccc21
11 | < 4.00 | 4.80 | < 4.00 | < 4.00 | Cn1cc(S(N)(=O)=O)c2cc(NC(=O)c3cc(Cl)nc(Br)c3)ccc21
12 | < 4.00 | 5.23 | < 4.00 |  | Cn1cc(S(N)(=O)=O)c2cc(NC(=O)c3ccnc(Cl)c3)ccc21
13 | < 4.00 | 4.70 | < 4.00 | < 4.00 | CCn1cc(S(N)(=O)=O)c2cc(NC(=O)c3ccnc(N)c3)ccc21
14 | < 4.00 | 5.80 |  |  | CCn1cc(S(N)(=O)=O)c2cc(NC(=O)c3cc(-c4ccccc4Cl)nc4ccccc34)ccc21
15 | < 4.00 | 5.37 |  |  | CCn1cc(S(N)(=O)=O)c2cc(NC(=O)c3cc(-c4cc(Cl)cc(Cl)c4)nc4ccc(OC)cc34)ccc21

The next lines start with the compound.

Row | Structure (SMILES) | pKi (Carbonic anhydrase 1) | pKi (Carbonic anhydrase 9) | pKi (Carbonic anhydrase 2) | pKi (Carbonic anhydrase 12)
16 | COc1ccc2nc(-c3ccccc3)cc(C(=O)Nc3ccc4c(c3)c(S(N)(=O)=O)cn4C)c2c1 | < 4.00 | 4.35 | < 4.00 | < 4.00
17 | CCn1cc(S(N)(=O)=O)c2cc(NC(=O)c3cc(-c4ccc(OC)c(OC)c4)nc4ccccc34)ccc21 | < 4.00 | 4.45 | < 4.00 | < 4.00
18 | CCn1cc(S(N)(=O)=O)c2cc(NC(=O)c3cc(-c4ccc5c(c4)OCO5)nc4ccccc34)ccc21 | < 4.00 | 5.12 |  | 
19 | CCn1cc(S(N)(=O)=O)c2cc(NC(=O)c3cc(-c4ccccc4C)nc4ccc(OC)cc34)ccc21 | < 4.00 | 5.06 |  | 
20 | COc1ccc2nc(-c3ccccc3OC)cc(C(=O)Nc3ccc4c(c3)c(S(N)(=O)=O)cn4C)c2c1 | < 4.00 | 4.41 | < 4.00 | < 4.00
21 | COc1ccc(-c2cc(C(=O)Nc3ccc4c(c3)c(S(N)(=O)=O)cn4C)c3ccccc3n2)cc1OC | < 4.00 | 4.16 | < 4.00 | < 4.00
22 | CCn1cc(S(N)(=O)=O)c2cc(NC(=O)c3cc(-c4ccccc4)nc4ccc(OC)cc34)ccc21 | < 4.00 | 4.40 | < 4.00 | < 4.00
23 | COc1ccc2nc(-c3ccccc3C)cc(C(=O)Nc3ccc4c(c3)c(S(N)(=O)=O)cn4C)c2c1 | < 4.00 | 4.79 |  | < 4.00
24 | CCn1cc(S(N)(=O)=O)c2cc(NC(=O)c3cc(-c4ccccc4OC)nc4ccc(OC)cc34)ccc21 | < 4.00 | 4.57 | < 4.00 | < 4.00
25 | CCn1cc(S(N)(=O)=O)c2cc(NC(=O)c3cc(-c4ccccc4)nc4ccccc34)ccc21 | < 4.00 | < 4.00 | < 4.00 | < 4.00
26 | Cn1cc(S(N)(=O)=O)c2cc(NC(=O)c3cc(-c4ccc(Cl)cc4)nc4ccccc34)ccc21 | < 4.00 | 4.73 |  | < 4.00
27 | Cn1cc(S(N)(=O)=O)c2cc(NC(=O)c3cc(-c4ccccc4)nc4ccccc34)ccc21 | < 4.00 | 4.08 | < 4.00 | < 4.00
28 | CCn1cc(S(N)(=O)=O)c2cc(NC(=O)c3cc(-c4ccc(OC)cc4OC)nc4ccc(OC)cc34)ccc21 | < 4.00 | 4.23 |  | < 4.00
